# Legend:
# Assay type in all cases: in vivo
# Echinochloa crus-galli [1] = test: Pre-emergence herbicidal activity, ECHCG; settings: Application pre-emergence, 1000 g/Ha, evaluated after 13 days, scale 0-5
# Method: (§1) Seeds of a variety of test species were sown in standard soil in pots. After cultivation for one day (pre-emergence) under controlled conditions in a glasshouse (at 24/16° C., day/night; 14 hours light; 65% humidity), the plants were sprayed with an aqueous spray solution derived from the formulation of the technical active ingredient in acetone/water (50:50) solution containing 0.5% Tween 20 (polyoxyethelyene sorbitan monolaurate, CAS RN 9005-64-5). The test plants were then grown in a glasshouse under controlled conditions (at 24/16° C., day/night; 14 hours light; 65% humidity) and watered twice daily. After 13 days, the test was evaluated (5=total damage to plant; 0=no damage to plant).
# Echinochloa crus-galli [2] = test: Post-emergence herbicidal activity, ECHCG; settings: Application post-emergence, 1000 g/Ha, evaluated after 13 days, scale 0-5
# Method: (§2) Seeds of a variety of test species were sown in standard soil in pots. After 8 days cultivation (post-emergence) under controlled conditions in a glasshouse (at 24/16° C., day/night; 14 hours light; 65% humidity), the plants were sprayed with an aqueous spray solution derived from the formulation of the technical active ingredient in acetone/water (50:50) solution containing 0.5% Tween 20 (polyoxyethelyene sorbitan monolaurate, CAS RN 9005-64-5). The test plants were then grown in a glasshouse under controlled conditions (at 24/16° C., day/night; 14 hours light; 65% humidity) and watered twice daily. After 13 days, the test was evaluated (5=total damage to plant; 0=no damage to plant).
# Abutilon theophrasti [3] = test: Post-emergence herbicidal activity, ABUTH; settings: Application post-emergence, 1000 g/Ha, evaluated after 13 days, scale 0-5
# Method: as §2
# Zea mays [4] = test: Pre-emergence herbicidal activity, ZEAMX; settings: Application pre-emergence, 1000 g/Ha, evaluated after 13 days, scale 0-5
# Method: as §1
# Setaria faberi [5] = test: Post-emergence herbicidal activity, SETFA; settings: Application post-emergence, 1000 g/Ha, evaluated after 13 days, scale 0-5
# Method: as §2
# Setaria faberi [6] = test: Pre-emergence herbicidal activity, SETFA; settings: Application pre-emergence, 1000 g/Ha, evaluated after 13 days, scale 0-5
# Method: as §1
# Alopecurus myosuroides [7] = test: Post-emergence herbicidal activity, ALOMY; settings: Application post-emergence, 1000 g/Ha, evaluated after 13 days, scale 0-5
# Method: as §2
# Alopecurus myosuroides [8] = test: Pre-emergence herbicidal activity, ALOMY; settings: Application pre-emergence, 1000 g/Ha, evaluated after 13 days, scale 0-5
# Method: as §1
# Amaranthus retroflexus [9] = test: Pre-emergence herbicidal activity, AMARE; settings: Application pre-emergence, 1000 g/Ha, evaluated after 13 days, scale 0-5
# Method: as §1
# Abutilon theophrasti [10] = test: Pre-emergence herbicidal activity, ABUTH; settings: Application pre-emergence, 1000 g/Ha, evaluated after 13 days, scale 0-5
# Method: as §1
# Amaranthus retroflexus [11] = test: Post-emergence herbicidal activity, AMARE; settings: Application post-emergence, 1000 g/Ha, evaluated after 13 days, scale 0-5
# Method: as §2
# Zea mays [12] = test: Post-emergence herbicidal activity, ZEAMX; settings: Application post-emergence, 1000 g/Ha, evaluated after 13 days, scale 0-5
# Method: as §2
SMILES,ECHCG damage score (Echinochloa crus-galli [1]),ECHCG damage score (Echinochloa crus-galli [2]),ABUTH damage score (Abutilon theophrasti [3]),ZEAMX damage score (Zea mays [4]),SETFA damage score (Setaria faberi [5]),SETFA damage score (Setaria faberi [6]),ALOMY damage score (Alopecurus myosuroides [7]),ALOMY damage score (Alopecurus myosuroides [8]),AMARE damage score (Amaranthus retroflexus [9]),ABUTH damage score (Abutilon theophrasti [10]),AMARE damage score (Amaranthus retroflexus [11]),ZEAMX damage score (Zea mays [12])
"CN1CC(O)N(c2cc(C(F)(F)F)ccn2)C1=O (centres unmarked) [Compound A1, 4-hydroxy-1-methyl-3-[4-(trifluoromethyl)-2-pyridyl]imidazolidin-2-one]",5,5,5,3,5,4,5,4,5,5,5,5
CN1CC(O)N(c2cc(C(F)(F)F)c(-c3ccc(F)cc3)cn2)C1=O (centres unmarked) [Compound A2],5,5,5,5,5,5,5,4,5,4,5,4
CN1CC(O)N(c2cc(C(F)(F)F)c(-c3ccccc3)cn2)C1=O (centres unmarked) [Compound A3],5,5,5,4,5,5,5,4,5,5,5,2
"CN1CC(O)N(c2cc(C(F)(F)F)c(-c3ccsc3)cn2)C1=O (centres unmarked) [Compound A4, 4-hydroxy-1-methyl-3-[5-(3-thienyl)-4-(trifluoromethyl)-2-pyridyl]imidazolidin-2-one]",4,5,5,2,5,3,4,3,5,2,5,0
CN1CC(O)N(c2cc(C(F)(F)F)c(-c3cccc(C#N)c3)cn2)C1=O (centres unmarked) [Compound A17],5,5,5,2,5,4,5,4,5,5,5,
COC(F)(F)c1ccnc(N2C(=O)N(C)CC2O)c1 (centres unmarked) [Compound A50],1,5,5,1,5,2,,,5,2,5,1
COCc1cnc(N2C(=O)N(C)CC2O)cc1C(F)(F)F (centres unmarked) [Compound A51],5,5,5,3,5,5,,,5,5,5,3
COCCOCc1cnc(N2C(=O)N(C)CC2O)cc1C(F)(F)F (centres unmarked) [Compound A52],5,5,5,4,5,5,,,5,5,5,5
